In patent publication US20050026850A1, “Combination of dehydroepiandrosterone or dehydroepiandrosterone-sulfate with a tyrosine kinase inhibitor, delta opioid receptor antagonist, neurokinin receptor antagonist, or VCAM inhibitor for treatment of asthma or chronic obstructive pulmonary disease” (priority 2003, published 2005):
“And” between values parts separate entries of the source, which are not always exact repeats. Equal values may be shown once.

What was measured:
[1] = tested on: Intracellular adenosine; test: In vivo effect on adenosine levels in various rat tissues
[2] = Solid-state stability with and without lactose at 50° C. (DHEA formation by HPLC); format: physicochemical; settings: for DHEA % formed from Anhydrous DHEA-S / Percent DHEA formed from DHEA-S Dihydrate: Control, neat, sealed, 25° C.
From the text: These conditions were used to stress the formulation in order to predict its long-term stability results. […] The primary degradant is DHEA. […] The materials on accelerated storage become more cohesive with time as evidenced by clumping during sample weighing for chemical analysis. […] This is a considerable disadvantage since lactose is the most commonly used inhalation excipient for dry powder formulations. Continuing with the virtually anhydrous form would mean limiting formulations to neat powder or undertaking more comprehensive safety studies to use a novel excipient.

[3] = tested on: HT-29 SF cells; test: DHEA effect on cell growth; format: cell-based, human
[4] = tested on: HT-29 SF cells; test: DHEA effect on cell cycle (flow cytometry); format: cell-based, human
Procedure: Cells were plated at 10^5/60-mm dish in duplicate. […] Cultures were trypsinized following 0, 24, 48, or 74 hours and fixed and stained using a modification of a procedure of Bauer et al., Cancer Res. 46, 3173-3178 (1986). Briefly, cells were collected by centrifugation and resuspended in cold phosphate-buffered saline. Cells were fixed in 70% ethanol, washed, and resuspended in phosphate-buffered saline.
After 24, 48, and 72 hours, cells were harvested, fixed in ethanol, and stained with propidium iodide, and the DNA content/cell was determined by flow cytometric analysis. The percentage of cells in G1, S, and G2M phases was calculated using the Cellfit cell cycle analysis program. S phase is marked by a quadrangle for clarity. Representative histograms from duplicate determinations are shown. The experiment was repeated three times.

[5] = HPLC analysis of drug degradation during jet milling micronization; format: physicochemical; settings: single-pass and double-pass jet milled, HPLC peak area versus unmilled standard
Procedure: Two vials (A; single-pass; 150 mg) and (B double-pass; 600 mg) of the micronized drug were available for determining drug degradation during jet milling micronization. […] The chromatographic peak area for the HPLC assay of the unmilled drug standard solution (10 mg/ml) gave a value of 23,427. […] The chromatographic peak areas for vials A and B were 11,979 and 11,677, respectively.

[6] = Nebulizer studies; settings: 0.12% NaCl (20 mM Cl−), Pari LC Plus nebulizer, 5 mL
From the text: The collection apparatus, nebulizer, and imp actor are rinsed with mobile phase and assayed by HPLC.

[7] = Solubility of DHEA-S; format: physicochemical; settings: 15° C., 20 mM Na+, from Ksp by quadratic formula
From the text: Inhalation of pure water can produce a cough stimulus. […] The temperature effect is weaker at high NaCl concentrations.

[8] = Short-term solution stability of DHEA-S formulation; format: physicochemical; settings: 7.5 mg/mL of DHEA-S in 0.12% NaCl, RT
Procedure: Aliquots of this solution are filled into clear glass vials and stored at RT (24-26° C.) and at 40° C. The samples are checked daily for DHEA-S content, DHEA content, and appearance. For each time point, duplicate samples are withdrawn and diluted from each vial. […] The study is stopped on day three. […] The solution should easily be stable for the day of reconstitution in a clinical trial. The following section describes the aerosol properties of this formulation.

[9] = tested on: rat peritoneal mast cells; test: Compound 48/80 histamine release from rat peritoneal mast cells; format: cell-based; settings: for % Inhibition of Histamine Release: DHEA-S 0; for effect on compound 48/80 induced mast cell degranulation: antagonist alone, 1-100 nM
[10] = tested on: NK1; settings: printed under the compound name in the table, no method or source; cited from earlier work

Question: For Nc1nc(=O)c2c([nH]1)NCC(CNc1ccc(C(=O)N[C@@H](CCC(=O)O)C(=O)O)cc1)N2C=O (mixture of isomers) [Folinic Acid, Folinic acid], which “Intracellular adenosine, Brain” value ([1]; Fischer 344 rats, once daily 14 days, DHEA 300 mg/kg, methyltestosterone 120 mg/kg, folinic acid 50 mg/kg i.p., mean ± SEM, control 0.5 ± 0.04) is on record?
Answer: 0.72 ± 0.09 nmols/mg protein

Question: And the “effect of folinic acid administered alone on adenosine levels” value ([1]; rats, folinic acid 50 mg/kg i.p. 14 days)?
Answer: increase in adenosine levels for all organs studied

Question: What about the “effect of coadministration of folinic acid on steroid-mediated adenosine depletion” value ([1]; rats, folinic acid 50 mg/kg i.p. with DHEA or methyltestosterone) of the same compound?
Answer: completely abrogated steroid-mediated adenosine depletion

Question: Which results are given for C[C@]12CC[C@H](OS(=O)(=O)[O-])CC1=CC[C@@H]1[C@@H]2CC[C@]2(C)C(=O)CC[C@@H]12.[Na+] [Anhydrous DHEA-S]?
Answer: DHEA % formed from Anhydrous DHEA-S at 50° C. ([2]; 1 week): 9.817%; DHEA % formed from Anhydrous DHEA-S at 50° C. ([2]; 2 weeks): 14.954%; DHEA % formed from Anhydrous DHEA-S at 50° C. ([2]; 4 weeks): 20.171%; DHEA % formed from Anhydrous DHEA-S ([2]; 1 week): 2.694%; DHEA % formed from Anhydrous DHEA-S ([2]; 2 weeks): 2.370%; DHEA % formed from Anhydrous DHEA-S ([2]; 4 weeks): 2.666%; DHEA % formed from Anhydrous DHEA-S ([2]; Time (Weeks), initial value): 2.774%

Question: What does the source list for C[C@]12CC[C@H](O)CC1=CC[C@@H]1[C@@H]2CC[C@]2(C)C(=O)CC[C@@H]12 [DHEA, 3β-hydroxyandrost-5-en-17-one]?
Answer: exposure time after which cell number was reduced compared to controls ([3]; 12.5 μM): 72 h; exposure time after which cell number was reduced compared to controls ([3]; 25 μM): 48 h; exposure time after which cell number was reduced compared to controls ([3]; 50 μM): 48 h; exposure time after which cell number was reduced compared to controls ([3]; 200 μM): 24 h; effect on tissue adenosine ([1]; rat, in vivo): multi-organ depletion of adenosine; cell cycle effect (summary) ([4]; 25-200 μM, 24-72 hours): G1 block in HT-29 SF cells in a time-and dose-dependent manner; cell cycle distribution ([4]; 25 or 50 μM, 72 hours): the percentage of cells in G1 phase was increased after 72 hours

Question: For CC12CCC3C(CC=C4CC(OS(=O)(=O)[O-])CCC43C)C1CCC2=O.[Na+] (centres unmarked) [DHEA-S Dihydrate], which “Percent DHEA formed from DHEA-S Dihydrate at 50° C.” value (from here on “Percent DHEA formed … at 50° C.”) ([2]; 1 week) is on record?
Answer: 0.216%

Question: And the “Percent DHEA formed … at 50° C.” value ([2]; 3 weeks)?
Answer: 0.317%

Question: What about the “Percent DHEA formed … at 50° C.” value ([2]; 4 weeks) of the same compound?
Answer: 0.374%

Question: What about the “Percent DHEA formed from DHEA-S Dihydrate” value ([2]; 4 weeks) of the same compound?
Answer: 0.218%

Question: What about the “Percent DHEA formed from DHEA-S Dihydrate” value ([2]; Time (Weeks), initial value) of the same compound?
Answer: 0.213%

Question: Which results are given for C[C@]12CC[C@H](OS(=O)(=O)[O-])CC1=CC[C@@H]1[C@@H]2CC[C@]2(C)C(=O)CC[C@@H]12.[Na+] [DHEA-S, sodium dehydroepiandrostenone sulfate]?
Answer: drug degradation during jet milling micronization [5]: no detectable degradation of the drug during the jet milling micronization process; highest solution concentration that will not precipitate during nebulization [6]: approximately 7.5 mg/mL; calculated DHEA-S solution concentration [7]: 27.5 mM and 10.7 mg/mL; stability of nebulizer formulation [8]: stable for at least one day at RT

Question: Which results are given for C[C@]12CCC(=O)C=C1CC[C@@H]1[C@@H]2CC[C@@]2(C)[C@H]1CC[C@]2(C)O [Methyltestosterone, methyltestosterone]?
Answer: Intracellular adenosine, Brain ([1]; rat, in vivo): 0.42 ± 0.06 and 0.32 ± 0.03; Intracellular adenosine, Heart ([1]; rat, in vivo): 8.3 ± 1.0 and 6.0 ± 0.4; effect on tissue adenosine ([1]; rat, in vivo): multi-organ depletion of adenosine

Question: For C=CCN1CC[C@]23c4c5ccc(O)c4O[C@H]2C(=O)CC[C@@]3(O)[C@H]1C5 [Naloxone, naloxone], which “% Inhibition of Histamine Release” value ([9]; antagonist 1 nM) is on record?
Answer: −1%

Question: What about the “% Inhibition of Histamine Release” value ([9]; antagonist 10 nM) of the same compound?
Answer: −1%

Question: And the “% Inhibition of Histamine Release” value ([9]; antagonist 100 nM)?
Answer: −2%

Question: What about the “effect on compound 48/80 induced mast cell degranulation” value [9] of the same compound?
Answer: minimal effect (if any)

Question: What does the source list for CC(C)Oc1cccc(CC(=O)N2CCC[C@](CC[N+]34CCC(c5ccccc5)(CC3)CC4)(c3ccc(Cl)c(Cl)c3)C2)c1 [SR 140333]?
Answer: % Inhibition of Histamine Release ([9]; antagonist 1 nM): 1%; % Inhibition of Histamine Release ([9]; antagonist 30 nM): −8%; % Inhibition of Histamine Release ([9]; antagonist 100 nM): −5%; effect on compound 48/80 induced mast cell degranulation [9]: minimal effect (if any); IC50 [10]: 50 nM
